In the NIST ThermoML archive (doi:10.1016/j.tca.2016.05.001):
Where “and” joins values, the source holds several entries; their conditions need not be identical. Identical values can stand only once.

What was measured:
[1] = for Triple point temperature: DSC
[2] = Molar enthalpy of transition or fusion; conditions: Crystal; DSC

c1ccc2nc3ccccc3cc2c1 [acridine]
[1]
Conditions	vapor or sublimation pressure
292.1 K, Crystal, Calculated from knudsen effusion weight loss	4e-06 kPa
293 K, Crystal, Calculated from knudsen effusion weight loss	4.7e-06 kPa
295.2 K, Crystal, Calculated from knudsen effusion weight loss	6.3e-06 kPa
296.1 K, Crystal, Calculated from knudsen effusion weight loss	6.7e-06 kPa
298.4 K, Crystal, Calculated from knudsen effusion weight loss	9.6e-06 kPa
300 K, Crystal, Calculated from knudsen effusion weight loss	1.2e-05 kPa
301.3 K, Crystal, Calculated from knudsen effusion weight loss	1.4e-05 kPa
303 K, Crystal, Calculated from knudsen effusion weight loss	1.8e-05 kPa
304.2 K, Crystal, Calculated from knudsen effusion weight loss	2e-05 kPa
305.9 K, Crystal, Calculated from knudsen effusion weight loss	2.6e-05 kPa
306.2 K, Crystal, Calculated from knudsen effusion weight loss	2.6e-05 kPa
308.1 K, Crystal, Calculated from knudsen effusion weight loss	3.3e-05 kPa
308.9 K, Crystal, Calculated from knudsen effusion weight loss	3.7e-05 kPa
311.1 K, Crystal, Calculated from knudsen effusion weight loss	4.7e-05 kPa
311.9 K, Crystal, Calculated from knudsen effusion weight loss	5.3e-05 kPa
314.1 K, Crystal, Calculated from knudsen effusion weight loss	6.8e-05 kPa
314.8 K, Crystal, Calculated from knudsen effusion weight loss	7.1e-05 kPa
315.8 K, Crystal, Calculated from knudsen effusion weight loss	8.4e-05 kPa
317 K, Crystal, Calculated from knudsen effusion weight loss	9.3e-05 kPa
317.8 K, Crystal, Calculated from knudsen effusion weight loss	9.8e-05 kPa
318.1 K, Crystal, Calculated from knudsen effusion weight loss	9.7e-05 kPa
318.8 K, Crystal, Calculated from knudsen effusion weight loss	0.000119 kPa
319.4 K, Crystal, Calculated from knudsen effusion weight loss	0.00011 kPa
320 K, Crystal, Calculated from knudsen effusion weight loss	0.000134 kPa
320.8 K, Crystal, Calculated from knudsen effusion weight loss	0.000138 kPa and 0.000148 kPa
321.1 K, Crystal, Calculated from knudsen effusion weight loss	0.00014 kPa
322.3 K, Crystal, Calculated from knudsen effusion weight loss	0.00015 kPa
322.9 K, Crystal, Calculated from knudsen effusion weight loss	0.000179 kPa
324 K, Crystal, Calculated from knudsen effusion weight loss	0.00019 kPa
325.1 K, Crystal, Calculated from knudsen effusion weight loss	0.00021 kPa
327 K, Crystal, Calculated from knudsen effusion weight loss	0.00027 kPa
328.1 K, Crystal, Calculated from knudsen effusion weight loss	0.0003 kPa
329.9 K, Crystal, Calculated from knudsen effusion weight loss	0.00036 kPa
331.1 K, Crystal, Calculated from knudsen effusion weight loss	0.0004 kPa
332.9 K, Crystal, Calculated from knudsen effusion weight loss	0.00048 kPa
334 K, Crystal, Calculated from knudsen effusion weight loss	0.00057 kPa
335.9 K, Crystal, Calculated from knudsen effusion weight loss	0.0007 kPa
337.1 K, Crystal, Calculated from knudsen effusion weight loss	0.00075 kPa
338.9 K, Crystal, Calculated from knudsen effusion weight loss	0.00091 kPa
340.2 K, Crystal, Calculated from knudsen effusion weight loss	0.00106 kPa
341.7 K, Crystal, Calculated from knudsen effusion weight loss	0.00122 kPa
343 K, Crystal, Calculated from knudsen effusion weight loss	0.00145 kPa
344.6 K, Crystal, Calculated from knudsen effusion weight loss	0.00162 kPa
346.1 K, Crystal, Calculated from knudsen effusion weight loss	0.0019 kPa
347.6 K, Crystal, Calculated from knudsen effusion weight loss	0.0022 kPa
348.8 K, Crystal, Calculated from knudsen effusion weight loss	0.0025 kPa
388.2 K, Liquid, Rate of evaporation	0.067 kPa
391.2 K, Liquid, Rate of evaporation	0.08 kPa
395.2 K, Liquid, Rate of evaporation	0.099 kPa
399.1 K, Liquid, Rate of evaporation	0.119 kPa
402.1 K, Liquid, Rate of evaporation	0.147 kPa
405 K, Liquid, Rate of evaporation	0.17 kPa
408 K, Liquid, Rate of evaporation	0.197 kPa
412 K, Liquid, Rate of evaporation	0.241 kPa
416 K, Liquid, Rate of evaporation	0.292 kPa
419.9 K, Liquid, Rate of evaporation	0.338 kPa
422.9 K, Liquid, Rate of evaporation	0.396 kPa
425.9 K, Liquid, Rate of evaporation	0.443 kPa
428.9 K, Liquid, Rate of evaporation	0.51 kPa
431.8 K, Liquid, Rate of evaporation	0.601 kPa

Conditions	Triple point temperature [K]
[1], Crystal	382

Conditions	Molar enthalpy of transition or fusion [kJ/mol]
[2]	20.5

c1ccc2c(c1)cnc1ccccc12 [phenanthridine]
[1]
Conditions	vapor or sublimation pressure
318.6 K, Crystal, Torsion effusion method	3.8e-05 kPa
322.1 K, Crystal, Torsion effusion method	5.7e-05 kPa
323.2 K, Crystal, Torsion effusion method	7.6e-05 kPa
324 K, Crystal, Torsion effusion method	7.6e-05 kPa
325 K, Crystal, Torsion effusion method	8.5e-05 kPa
325.2 K, Crystal, Torsion effusion method	9.4e-05 kPa
325.9 K, Crystal, Torsion effusion method	0.000104 kPa
327 K, Crystal, Torsion effusion method	0.000104 kPa
327.6 K, Crystal, Torsion effusion method	0.000124 kPa
329.1 K, Crystal, Torsion effusion method	0.000133 kPa
329.3 K, Crystal, Torsion effusion method	0.000151 kPa
330 K, Crystal, Torsion effusion method	0.000142 kPa
330.9 K, Crystal, Torsion effusion method	0.000181 kPa
331.9 K, Crystal, Torsion effusion method	0.00019 kPa
332.6 K, Crystal, Torsion effusion method	0.000208 kPa
332.9 K, Crystal, Torsion effusion method	0.000228 kPa
333.9 K, Crystal, Torsion effusion method	0.00025 kPa
334.1 K, Crystal, Torsion effusion method	0.00023 kPa
334.7 K, Crystal, Torsion effusion method	0.00025 kPa
335 K, Crystal, Torsion effusion method	0.00026 kPa
335.7 K, Crystal, Torsion effusion method	0.0003 kPa
335.9 K, Crystal, Torsion effusion method	0.00028 kPa
337 K, Crystal, Torsion effusion method	0.00034 kPa
337.9 K, Crystal, Torsion effusion method	0.00038 kPa
338.4 K, Crystal, Torsion effusion method	0.00036 kPa
339.8 K, Crystal, Torsion effusion method	0.00045 kPa
340 K, Crystal, Torsion effusion method	0.00044 kPa and 0.00047 kPa
341.4 K, Crystal, Torsion effusion method	0.00053 kPa
341.5 K, Crystal, Torsion effusion method	0.00055 kPa
342.2 K, Crystal, Torsion effusion method	0.00061 kPa
342.9 K, Crystal, Torsion effusion method	0.00061 kPa
343.2 K, Crystal, Torsion effusion method	0.00072 kPa
345.3 K, Crystal, Torsion effusion method	0.00085 kPa
345.5 K, Crystal, Torsion effusion method	0.00079 kPa
347.1 K, Crystal, Torsion effusion method	0.001 kPa
347.3 K, Crystal, Torsion effusion method	0.00093 kPa
348.2 K, Crystal, Torsion effusion method	0.00115 kPa
349.4 K, Crystal, Torsion effusion method	0.00128 kPa
388.1 K, Liquid, Rate of evaporation	0.038 kPa
393.1 K, Liquid, Rate of evaporation	0.05 kPa
398.1 K, Liquid, Rate of evaporation	0.065 kPa
403.1 K, Liquid, Rate of evaporation	0.086 kPa
408.1 K, Liquid, Rate of evaporation	0.113 kPa
413.1 K, Liquid, Rate of evaporation	0.145 kPa
418.1 K, Liquid, Rate of evaporation	0.187 kPa
423.1 K, Liquid, Rate of evaporation	0.24 kPa
428.1 K, Liquid, Rate of evaporation	0.302 kPa
433.1 K, Liquid, Rate of evaporation	0.369 kPa
438.1 K, Liquid, Rate of evaporation	0.469 kPa
443.1 K, Liquid, Rate of evaporation	0.567 kPa
448.1 K, Liquid, Rate of evaporation	0.728 kPa
453.1 K, Liquid, Rate of evaporation	0.854 kPa

Conditions	Triple point temperature [K]
[1], Crystal	379.1

Conditions	Molar enthalpy of transition or fusion [kJ/mol]
[2]	24.8
